According to PubChem BioAssay AID1963852 (Molecular Pharmacology Branch, DTP, NCI, 2024):

Tested on: 282377-053-R-J1-PDC complex spheroid viability
Assay: Anticancer human tumor 282377-053-R-J1-PDC patient-derived colon adenocarcinoma cell line growth inhibition [POLQ]
Conditions: for IC50: curve of first compound; for viability, T/C: stronger effect = lower value
Procedure, shortened: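 Patient-derived tumour cells were co-cultured with HUVEC and mesenchymal stem cells as multicellular spheroids at 37 °C. They were treated with POLQ inhibitors (novobiocin, ART-558, RP6685) alone or combined with other agents. Top concentrations were at or near clinical Cmax (otherwise 10 microM; SN-38 at 1 microM), decreasing in half-log steps.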

[1] = second compound 0.0316 µM, first compound 0.0316 µM
[2] = second compound 0.0316 µM, first compound 0.1 µM
[3] = second compound 0.0316 µM, first compound 0.316 µM
[4] = second compound 0.0316 µM, first compound 1 µM
[5] = second compound 0.0316 µM, first compound 3.16 µM
[6] = second compound 0.0316 µM, first compound 10 µM
[7] = second compound 0.1 µM, first compound 0.0316 µM
[8] = second compound 0.1 µM, first compound 0.1 µM
[9] = second compound 0.1 µM, first compound 0.316 µM
[10] = second compound 0.1 µM, first compound 1 µM
[11] = second compound 0.1 µM, first compound 3.16 µM
[12] = second compound 0.1 µM, first compound 10 µM
[13] = second compound 0.316 µM, first compound 0.0316 µM
[14] = second compound 0.316 µM, first compound 0.1 µM
[15] = second compound 0.316 µM, first compound 0.316 µM
[16] = second compound 0.316 µM, first compound 1 µM
[17] = second compound 0.316 µM, first compound 3.16 µM
[18] = second compound 0.316 µM, first compound 10 µM
[19] = second compound 1 µM, first compound 0.0316 µM
[20] = second compound 1 µM, first compound 0.1 µM
[21] = second compound 1 µM, first compound 0.316 µM
[22] = second compound 1 µM, first compound 1 µM
[23] = second compound 1 µM, first compound 3.16 µM
[24] = second compound 1 µM, first compound 10 µM
[25] = second compound 3.16 µM, first compound 0.0316 µM
[26] = second compound 3.16 µM, first compound 0.1 µM
[27] = second compound 3.16 µM, first compound 0.316 µM
[28] = second compound 3.16 µM, first compound 1 µM
[29] = second compound 3.16 µM, first compound 3.16 µM
[30] = second compound 3.16 µM, first compound 10 µM
[31] = second compound 10 µM, first compound 0.0316 µM
[32] = second compound 10 µM, first compound 0.1 µM
[33] = second compound 10 µM, first compound 0.316 µM
[34] = second compound 10 µM, first compound 1 µM
[35] = second compound 10 µM, first compound 3.16 µM
[36] = second compound 10 µM, first compound 10 µM
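Also: spheroids exposed to compounds for seven days.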
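For viability, T/C in this document: 100% = DMSO vehicle control viability.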

`O=C(Nc1ccc(O)c(NS(=O)(=O)c2ccc(F)cc2)c1)c1ccc(-c2ccccc2)cc1` + COC1C(OC(N)=O)C(O)C(Oc2ccc3c(O)c(NC(=O)c4ccc(O)c(CC=C(C)C)c4)c(=O)oc3c2C)OC1(C)C showed an IC50 (second compound 0.0316 µM) of over 10000 nM, an IC50 (second compound 0.1 µM) of over 10000 nM and an IC50 (second compound 0.316 µM) of over 10000 nM. For the same molecule, the IC50 (second compound 1 µM) was over 10000 nM, the IC50 (second compound 3.16 µM) was over 10000 nM and the IC50 (second compound 10 µM) was over 10000 nM. The viability, T/C [1] was 120%, the viability, T/C [2] was 117% and the viability, T/C [3] was 109%. The viability, T/C [4] was 113%, the viability, T/C [5] was 133% and the viability, T/C [6] was 94.5%. For the same molecule, the viability, T/C [7] was 122%, the viability, T/C [8] was 125% and the viability, T/C [9] was 117%. The viability, T/C [10] was 127%, the viability, T/C [11] was 127% and the viability, T/C [12] was 97%. For the same molecule, the viability, T/C [13] was 115%, the viability, T/C [14] was 108% and the viability, T/C [15] was 100%. For the same molecule, the viability, T/C [16] was 108%, the viability, T/C [17] was 112% and the viability, T/C [18] was 94.5%. The viability, T/C [19] was 116%, the viability, T/C [20] was 99.6% and the viability, T/C [21] was 118%. For the same molecule, the viability, T/C [22] was 115%, the viability, T/C [23] was 120% and the viability, T/C [24] was 122%. For the same molecule, the viability, T/C [25] was 98.2%, the viability, T/C [26] was 118% and the viability, T/C [27] was 106%. For the same molecule, the viability, T/C [28] was 114%, the viability, T/C [29] was 99.8% and the viability, T/C [30] was 104%. The viability, T/C [31] was 127%, the viability, T/C [32] was 95.3% and the viability, T/C [33] was 94.9%. The viability, T/C [34] was 127%, the viability, T/C [35] was 104% and the viability, T/C [36] was 93.5%.
Molecule `CC(=O)O[C@H]1C(=O)[C@@]2(C)[C@H]([C@H](OC(=O)c3ccccc3)[C@]3(O)C[C@H](OC(=O)[C@H](O)[C@@H](NC(=O)c4ccccc4)c4ccccc4)C(C)=C1C3(C)C)[C@]1(OC(C)=O)CO[C@@H]1C[C@@H]2O` + Cc1cccc(N(C)C(=O)C2C(O)CCN2c2nc(C)cc(C(F)(F)F)c2C#N)c1 has an IC50 (second compound 0.0316 µM) of 27.8 nM, an IC50 (second compound 0.1 µM) of 28 nM and an IC50 (second compound 0.316 µM) of 26 nM. The IC50 (second compound 1 µM) was 27.6 nM, the IC50 (second compound 3.16 µM) was 28.1 nM and the IC50 (second compound 10 µM) was 26.9 nM. The viability, T/C (second compound 0.0316 µM, first compound 0.00949 µM) was 103%, the viability, T/C (second compound 0.0316 µM, first compound 0.03 µM) was 44.3% and the viability, T/C (second compound 0.0316 µM, first compound 0.0949 µM) was 40.6%. The viability, T/C (second compound 0.0316 µM, first compound 0.3 µM) was 43%, the viability, T/C (second compound 0.0316 µM, first compound 0.949 µM) was 45.6% and the viability, T/C (second compound 0.0316 µM, first compound 3 µM) was 57.6%. It also gave a viability, T/C (second compound 0.1 µM, first compound 0.00949 µM) of 90.3%, a viability, T/C (second compound 0.1 µM, first compound 0.03 µM) of 47.5% and a viability, T/C (second compound 0.1 µM, first compound 0.0949 µM) of 43.4%. The viability, T/C (second compound 0.1 µM, first compound 0.3 µM) was 40.9%, the viability, T/C (second compound 0.1 µM, first compound 0.949 µM) was 44.8% and the viability, T/C (second compound 0.1 µM, first compound 3 µM) was 53%. The viability, T/C (second compound 0.316 µM, first compound 0.00949 µM) was 98.8%, the viability, T/C (second compound 0.316 µM, first compound 0.03 µM) was 42.5% and the viability, T/C (second compound 0.316 µM, first compound 0.0949 µM) was 38.5%. It also gave a viability, T/C (second compound 0.316 µM, first compound 0.3 µM) of 37.5%, a viability, T/C (second compound 0.316 µM, first compound 0.949 µM) of 45.4% and a viability, T/C (second compound 0.316 µM, first compound 3 µM) of 51.4%. The viability, T/C (second compound 1 µM, first compound 0.00949 µM) was 92.3%, the viability, T/C (second compound 1 µM, first compound 0.03 µM) was 44.9% and the viability, T/C (second compound 1 µM, first compound 0.0949 µM) was 37.2%. For the same molecule, the viability, T/C (second compound 1 µM, first compound 0.3 µM) was 45.6%, the viability, T/C (second compound 1 µM, first compound 0.949 µM) was 48.8% and the viability, T/C (second compound 1 µM, first compound 3 µM) was 56.7%. For the same molecule, the viability, T/C (second compound 3.16 µM, first compound 0.00949 µM) was 99.5%, the viability, T/C (second compound 3.16 µM, first compound 0.03 µM) was 47.2% and the viability, T/C (second compound 3.16 µM, first compound 0.0949 µM) was 39.5%. It also gave a viability, T/C (second compound 3.16 µM, first compound 0.3 µM) of 44.5%, a viability, T/C (second compound 3.16 µM, first compound 0.949 µM) of 45.2% and a viability, T/C (second compound 3.16 µM, first compound 3 µM) of 54.2%. It also gave a viability, T/C (second compound 10 µM, first compound 0.00949 µM) of 95%, a viability, T/C (second compound 10 µM, first compound 0.03 µM) of 43.1% and a viability, T/C (second compound 10 µM, first compound 0.0949 µM) of 37.8%. It also gave a viability, T/C (second compound 10 µM, first compound 0.3 µM) of 40.7%, a viability, T/C (second compound 10 µM, first compound 0.949 µM) of 46.4% and a viability, T/C (second compound 10 µM, first compound 3 µM) of 58.1%.
With `COc1cc(C2c3cc4c(cc3C(OC3OC5COC(C)OC5C(O)C3O)C3COC(=O)C23)OCO4)cc(OC)c1O` (stereo not drawn) + Cc1cccc(N(C)C(=O)C2C(O)CCN2c2nc(C)cc(C(F)(F)F)c2C#N)c1 the IC50 (second compound 0.0316 µM) was over 10000 nM, the IC50 (second compound 0.1 µM) was over 10000 nM and the IC50 (second compound 0.316 µM) was over 10000 nM. For the same molecule, the IC50 (second compound 1 µM) was over 10000 nM, the IC50 (second compound 3.16 µM) was over 10000 nM and the IC50 (second compound 10 µM) was 7510 nM. For the same molecule, the viability, T/C [1] was 139%, the viability, T/C [2] was 104% and the viability, T/C [3] was 128%. It also gave a viability, T/C [4] of 109%, a viability, T/C [5] of 84.8% and a viability, T/C [6] of 61.4%. It also gave a viability, T/C [7] of 112%, a viability, T/C [8] of 105% and a viability, T/C [9] of 123%. The viability, T/C [10] was 88.7%, the viability, T/C [11] was 89.1% and the viability, T/C [12] was 59.1%. For the same molecule, the viability, T/C [13] was 108%, the viability, T/C [14] was 98.2% and the viability, T/C [15] was 119%. It also gave a viability, T/C [16] of 116%, a viability, T/C [17] of 91% and a viability, T/C [18] of 64.2%. The viability, T/C [19] was 107%, the viability, T/C [20] was 99% and the viability, T/C [21] was 123%. It also gave a viability, T/C [22] of 98.1%, a viability, T/C [23] of 78.7% and a viability, T/C [24] of 56.9%. The viability, T/C [25] was 103%, the viability, T/C [26] was 102% and the viability, T/C [27] was 96.2%. For the same molecule, the viability, T/C [28] was 90.1%, the viability, T/C [29] was 86.2% and the viability, T/C [30] was 53.9%. For the same molecule, the viability, T/C [31] was 103%, the viability, T/C [32] was 100% and the viability, T/C [33] was 96.5%. It also gave a viability, T/C [34] of 78.2%, a viability, T/C [35] of 62.1% and a viability, T/C [36] of 46%.
With `COc1cccc2c1C(=O)c1c(O)c3c(c(O)c1C2=O)CC(O)(C(=O)CO)CC3OC1CC(N)C(O)C(C)O1` (stereo not drawn) + Cc1cccc(N(C)C(=O)C2C(O)CCN2c2nc(C)cc(C(F)(F)F)c2C#N)c1 the IC50 (second compound 0.0316 µM) was 476 nM, the IC50 (second compound 0.1 µM) was 561 nM and the IC50 (second compound 0.316 µM) was 458 nM. The IC50 (second compound 1 µM) was 375 nM, the IC50 (second compound 3.16 µM) was 487 nM and the IC50 (second compound 10 µM) was 350 nM. The viability, T/C [1] was 130%, the viability, T/C [2] was 105% and the viability, T/C [3] was 63.7%. For the same molecule, the viability, T/C [4] was 27.6%, the viability, T/C [5] was 1.27% and the viability, T/C [6] was 3.44%. For the same molecule, the viability, T/C [7] was 108%, the viability, T/C [8] was 98.5% and the viability, T/C [9] was 79.6%. It also gave a viability, T/C [10] of 20.7%, a viability, T/C [11] of 1.4% and a viability, T/C [12] of 2.79%. It also gave a viability, T/C [13] of 104%, a viability, T/C [14] of 100% and a viability, T/C [15] of 66.1%. It also gave a viability, T/C [16] of 16.1%, a viability, T/C [17] of 0.98% and a viability, T/C [18] of 3.12%. For the same molecule, the viability, T/C [19] was 113%, the viability, T/C [20] was 101% and the viability, T/C [21] was 47%. The viability, T/C [22] was 29.9%, the viability, T/C [23] was 2.19% and the viability, T/C [24] was 2.83%. It also gave a viability, T/C [25] of 115%, a viability, T/C [26] of 91.7% and a viability, T/C [27] of 73.3%. The viability, T/C [28] was 15.2%, the viability, T/C [29] was 1% and the viability, T/C [30] was 2.98%. For the same molecule, the viability, T/C [31] was 95%, the viability, T/C [32] was 89.8% and the viability, T/C [33] was 54%. It also gave a viability, T/C [34] of 9.01%, a viability, T/C [35] of 0.71% and a viability, T/C [36] of 2.73%.
